Earlier results as cited in patent US20150366832A1, “CARBIDOPA/LEVODOPA GASTRORETENTIVE DRUG DELIVERY” (INTEC PHARMA LTD., priority 2008, published 2015).

Structure (SMILES) | reduction of the amount of Levodopa required to produce a given response (Carbidopa given with Levodopa) | crossing of the blood-brain barrier (human, in vivo) | half-life (Carbidopa and Levodopa administered together) | plasma half-life (without Carbidopa)
C[C@@](Cc1ccc(O)c(O)c1)(NN)C(=O)O [Carbidopa] | about 75% | does not cross the blood-brain barrier |  | 
N[C@@H](Cc1ccc(O)c(O)c1)C(=O)O [Levodopa] |  |  | about 1.5 hours | about 50 minutes
